Test results reported in ChEMBL document CHEMBL5331073, “Discovery of novel 7,7-dimethyl-6,7-dihydro-5H-pyrrolo[3,4-d]pyrimidines as ATR inhibitors based on structure-based drug design” (Eur J Med Chem, 2023).

Columns and labels:
[1] = biological target: Serine/threonine-protein kinase ATR (Homo sapiens, UniProt Q13535); test: Inhibition of ATR (unknown origin) using peptide as substrate preincubated for 10 mins followed by substrate addition by microplate reader analysis
LoVo [2] = test: Antiproliferative activity against ATM-deficient human LoVo cells assessed as reduction in cell proliferation at 0.2 uM incubated for 3 days by MTT assay; assay type: functional; parameters: scale not given: the % may be the effect or the level left; conditions: time 3 day
LoVo [3] = test: Antiproliferative activity against ATM-deficient human LoVo cells assessed as reduction in cell proliferation incubated for 3 days by MTT assay; assay type: functional, cell-based; conditions: 72 h
HT-29 = test: Antiproliferative activity against ATM-proficient human HT-29 cells assessed as reduction in cell proliferation incubated for 3 days by MTT assay; assay type: functional, cell-based; conditions: HT-29, 72 h
in vitro [4] = conditions: human, liver microsomes
in vitro [5] = conditions: rat, liver microsomes
in vitro [6] = conditions: human, liver microsomes; remark: listed apart in the source
in vitro [7] = conditions: rat, liver microsomes; remark: listed apart in the source
in vitro [8] = conditions: human, liver microsomes; remark: listed apart in the source
in vitro [9] = conditions: rat, liver microsomes; remark: listed apart in the source

Serine/threonine-protein kinase ATR, sequence (Q13535 whole entry): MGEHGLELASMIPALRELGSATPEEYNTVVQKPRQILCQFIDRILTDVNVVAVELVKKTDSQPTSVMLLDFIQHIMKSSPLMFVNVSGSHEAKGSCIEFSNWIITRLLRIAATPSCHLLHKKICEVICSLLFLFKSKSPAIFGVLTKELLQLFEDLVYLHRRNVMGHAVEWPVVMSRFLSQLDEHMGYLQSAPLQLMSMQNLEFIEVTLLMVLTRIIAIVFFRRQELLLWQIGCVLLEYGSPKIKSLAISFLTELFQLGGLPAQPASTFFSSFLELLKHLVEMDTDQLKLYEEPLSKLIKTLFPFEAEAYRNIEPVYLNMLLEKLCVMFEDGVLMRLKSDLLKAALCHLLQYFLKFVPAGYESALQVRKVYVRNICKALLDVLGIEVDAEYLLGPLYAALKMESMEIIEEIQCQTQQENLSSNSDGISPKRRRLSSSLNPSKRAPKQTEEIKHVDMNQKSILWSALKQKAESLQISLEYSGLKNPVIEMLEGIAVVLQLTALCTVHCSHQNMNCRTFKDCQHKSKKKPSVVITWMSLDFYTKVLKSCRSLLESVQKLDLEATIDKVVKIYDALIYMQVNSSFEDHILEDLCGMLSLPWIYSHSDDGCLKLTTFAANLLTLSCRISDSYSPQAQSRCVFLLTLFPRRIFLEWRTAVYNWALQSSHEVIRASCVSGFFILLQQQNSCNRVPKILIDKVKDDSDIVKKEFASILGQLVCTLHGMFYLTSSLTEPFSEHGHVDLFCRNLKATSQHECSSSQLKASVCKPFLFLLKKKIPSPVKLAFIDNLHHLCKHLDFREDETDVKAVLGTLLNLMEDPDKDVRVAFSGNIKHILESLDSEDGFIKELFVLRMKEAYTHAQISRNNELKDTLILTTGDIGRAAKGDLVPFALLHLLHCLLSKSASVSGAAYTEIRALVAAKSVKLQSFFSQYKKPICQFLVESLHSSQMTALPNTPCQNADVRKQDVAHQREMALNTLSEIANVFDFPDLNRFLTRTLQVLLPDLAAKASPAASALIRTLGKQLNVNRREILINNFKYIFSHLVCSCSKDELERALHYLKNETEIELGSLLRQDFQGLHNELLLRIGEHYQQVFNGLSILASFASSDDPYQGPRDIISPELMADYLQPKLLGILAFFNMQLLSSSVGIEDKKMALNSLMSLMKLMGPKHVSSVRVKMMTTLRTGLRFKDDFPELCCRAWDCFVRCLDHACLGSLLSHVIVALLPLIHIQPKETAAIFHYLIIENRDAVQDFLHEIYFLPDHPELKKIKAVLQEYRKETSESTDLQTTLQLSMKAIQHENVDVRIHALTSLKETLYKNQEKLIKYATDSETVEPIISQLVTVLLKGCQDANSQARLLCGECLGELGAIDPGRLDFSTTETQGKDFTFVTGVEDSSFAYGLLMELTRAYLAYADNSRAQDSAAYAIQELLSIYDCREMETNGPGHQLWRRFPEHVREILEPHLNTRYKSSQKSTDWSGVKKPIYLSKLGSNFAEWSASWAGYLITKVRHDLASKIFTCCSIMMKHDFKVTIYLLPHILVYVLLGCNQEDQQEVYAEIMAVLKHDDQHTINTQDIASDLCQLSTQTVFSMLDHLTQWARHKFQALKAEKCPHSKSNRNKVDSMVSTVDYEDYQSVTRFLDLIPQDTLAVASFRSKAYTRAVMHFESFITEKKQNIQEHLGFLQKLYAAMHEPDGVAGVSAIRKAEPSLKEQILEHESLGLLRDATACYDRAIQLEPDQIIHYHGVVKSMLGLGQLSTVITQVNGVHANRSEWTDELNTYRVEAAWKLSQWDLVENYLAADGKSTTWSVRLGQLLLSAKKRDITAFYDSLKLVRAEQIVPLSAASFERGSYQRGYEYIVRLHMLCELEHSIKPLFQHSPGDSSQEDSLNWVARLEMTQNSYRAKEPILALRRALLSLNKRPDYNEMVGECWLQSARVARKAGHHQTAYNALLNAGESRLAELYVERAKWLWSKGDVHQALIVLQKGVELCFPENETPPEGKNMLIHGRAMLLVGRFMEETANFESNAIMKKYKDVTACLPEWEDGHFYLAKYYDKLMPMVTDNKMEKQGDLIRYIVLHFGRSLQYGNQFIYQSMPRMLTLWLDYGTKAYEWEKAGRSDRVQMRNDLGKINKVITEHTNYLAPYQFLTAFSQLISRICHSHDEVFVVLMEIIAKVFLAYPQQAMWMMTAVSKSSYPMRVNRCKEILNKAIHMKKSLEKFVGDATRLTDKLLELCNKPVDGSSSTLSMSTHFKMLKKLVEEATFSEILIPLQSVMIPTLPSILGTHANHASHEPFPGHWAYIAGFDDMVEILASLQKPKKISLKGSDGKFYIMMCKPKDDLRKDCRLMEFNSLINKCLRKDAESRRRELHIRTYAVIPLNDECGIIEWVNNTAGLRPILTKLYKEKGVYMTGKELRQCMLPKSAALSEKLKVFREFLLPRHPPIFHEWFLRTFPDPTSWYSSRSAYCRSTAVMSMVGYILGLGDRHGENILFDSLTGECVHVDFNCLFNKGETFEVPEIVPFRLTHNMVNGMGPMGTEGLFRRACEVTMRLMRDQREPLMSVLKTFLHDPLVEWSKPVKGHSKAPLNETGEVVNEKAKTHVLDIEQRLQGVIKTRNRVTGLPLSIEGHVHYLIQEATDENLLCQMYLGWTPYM

Structure (SMILES)	IC50 [1] [nM]	further results
CCC(=O)N1CCc2c(nc(-c3cccc4[nH]ccc34)nc2N2CCOC[C@H]2C)C1	38	–
C[C@@H]1COCCN1c1nc(-c2cccc3[nH]ccc23)nc2c1CCN(C(=O)C1CC1)C2	14	–
C[C@@H]1COCCN1c1nc(-c2cccc3[nH]ccc23)nc2c1CCN(C(=O)Cc1ccccc1)C2(C)C	22	–
CC(C)C(=O)N1CCc2nc(-c3cccc4[nH]ccc34)nc(N3CCOC[C@H]3C)c2C1	> 100	–
COc1ccc(C(=O)N2Cc3c(N4CCOC[C@H]4C)nc(-c4cccc5[nH]ccc45)nc3C2(C)C)cc1OC	7	–
COc1ccc(C(=O)N2CCc3c(N4CCOC[C@H]4C)nc(-c4cccc5[nH]ccc45)nc3C23CCC3)cc1	> 100	–
CC(=O)N1CCc2nc(-c3cccc4[nH]ccc34)nc(N3CCOC[C@H]3C)c2C1	> 100	–
C=CC(=O)N1CCc2c(N3CCOC[C@H]3C)nc(-c3cccc4[nH]ccc34)nc2C1(C)C	6	–
C[C@@H]1COCCN1c1nc(-c2cccc3[nH]ccc23)nc2c1CCN(C(=O)C1CCC1)C2(C)C	17	–
CC(C)C(=O)N1CCc2c(nc(-c3cccc4[nH]ccc34)nc2N2CCOC[C@H]2C)C1	15	–
COc1cc(C(=O)N2Cc3c(N4CCOC[C@H]4C)nc(-c4cccc5[nH]ccc45)nc3C2(C)C)cc(OC)c1OC	19	–
C[C@@H]1COCCN1c1nc(-c2cccc3[nH]ccc23)nc2c1CCN(C(=O)Cc1cccs1)C2(C)C	9	–
C[C@@H]1COCCN1c1nc(-c2cccc3[nH]ccc23)nc2c1CCN(C(=O)C(C)(C)C)C2(C)C	17	–
Cc1cccc(C(=O)N2CCc3c(N4CCOC[C@H]4C)nc(-c4cccc5[nH]ccc45)nc3C2(C)C)c1	17	–
COc1ccc(C(=O)N2CCc3c(nc(-c4cccc5[nH]ccc45)nc3N3CCOC[C@H]3C)C2)cc1	51	–
C[C@@H]1COCCN1c1nc(-c2cccc3[nH]ccc23)nc2c1CCN(C(=O)c1ccccc1)C2(C)C	9	IC50 (LoVo [3]): 574 nM; IC50 (HT-29): 1640 nM; half-life at 1 h, 1 µM (in vitro [4]): 24.5 min; half-life at 1 h, 1 µM (in vitro [5]): 38.2 min; microsomal CLint at 1 h, 1 µM (in vitro [6]): 56.8 µL/min/mg; microsomal CLint at 1 h, 1 µM (in vitro [7]): 36.4 µL/min/mg; CLint scaled at 1 h, 1 µM (in vitro [8]): 53.7 mL/min/kg; CLint scaled at 1 h, 1 µM (in vitro [9]): 65.5 mL/min/kg

Structure (SMILES)	IC50 [1] [nM]	further results
C[C@@H]1COCCN1c1nc(-c2cccc3[nH]ccc23)nc2c1CCN(C(=O)c1cccc(Cl)c1)C2(C)C	43	–
C[C@@H]1COCCN1c1nc(-c2cccc3[nH]ccc23)nc2c1CCN(C(=O)CN1CCN(C)CC1)C2(C)C	52	–
CC(C)C(=O)N1Cc2c(N3CCOC[C@H]3C)nc(-c3cccc4[nH]ccc34)nc2C1(C)C	8	Activity (LoVo [2]): <45%
COc1ccc(C(=O)N2CCc3c(N4CCOC[C@H]4C)nc(-c4cccc5[nH]ccc45)nc3C2(C)C)cc1	9	–
CCC(=O)N1CCc2nc(-c3cccc4[nH]ccc34)nc(N3CCOC[C@H]3C)c2C1	> 1100	–
C[C@@H]1COCCN1c1nc(-c2cccc3[nH]ccc23)nc2c1CCN(C(=O)c1cccc(F)c1)C2(C)C	14	IC50 (LoVo [3]): 964 nM; IC50 (HT-29): 2580 nM; half-life at 1 h, 1 µM (in vitro [4]): 7.76 min; half-life at 1 h, 1 µM (in vitro [5]): 23.4 min; microsomal CLint at 1 h, 1 µM (in vitro [6]): 179 µL/min/mg; microsomal CLint at 1 h, 1 µM (in vitro [7]): 59.6 µL/min/mg; CLint scaled at 1 h, 1 µM (in vitro [8]): 169 mL/min/kg; CLint scaled at 1 h, 1 µM (in vitro [9]): 107 mL/min/kg
C[C@@H]1COCCN1c1nc(-c2cccc3[nH]ccc23)nc2c1CN(C(=O)c1ccc(OC(F)(F)F)cc1)C2(C)C	42	–
CCC(=O)N1Cc2c(N3CCOC[C@H]3C)nc(-c3cccc4[nH]ccc34)nc2C1(C)C	2	Activity (LoVo [2]): <45%
C[C@@H]1COCCN1c1nc(-c2cccc3[nH]ccc23)nc2c1CCN(C(=O)C1CC1)C21CCC1	28	–
C[C@@H]1COCCN1c1nc(-c2cccc3[nH]ccc23)nc2c1CCN(C(=O)CN(C)C)C2(C)C	32	–
CCC(=O)N1CCc2c(N3CCOC[C@H]3C)nc(-c3cccc4[nH]ccc34)nc2C12CCC2	23	–
CC(=O)N1CCc2c(nc(-c3cccc4[nH]ccc34)nc2N2CCOC[C@H]2C)C1	29	–
C[C@@H]1COCCN1c1nc(-c2cccc3[nH]ccc23)nc2c1CN(C(=O)c1ccc3c(c1)OCCO3)C2(C)C	4	IC50 (LoVo [3]): 147 nM; IC50 (HT-29): 487 nM
COc1cccc(C(=O)N2CCc3nc(-c4cccc5[nH]ccc45)nc(N4CCOC[C@H]4C)c3C2)c1	> 100	–
COc1cccc(C(=O)N2CCc3c(N4CCOC[C@H]4C)nc(-c4cccc5[nH]ccc45)nc3C2(C)C)c1	5	–

Continued, in another order:

IC50 [1] [nM]	Structure (SMILES)	further results
5	C[C@@H]1COCCN1c1nc(-c2cccc3[nH]ccc23)nc2c1CN(C(=O)c1ccc(OC(F)F)cc1)C2(C)C	Activity (LoVo [2]): <45%
8	C[C@@H]1COCCN1c1nc(-c2cccc3[nH]ccc23)nc2c1CN(C(=O)C1CC1)C2(C)C	Activity (LoVo [2]): <45%
> 1100	COc1ccc(C(=O)N2CCc3nc(-c4cccc5[nH]ccc45)nc(N4CCOC[C@H]4C)c3C2)cc1	–
35	CC(=O)N1CCc2c(N3CCOC[C@H]3C)nc(-c3cccc4[nH]ccc34)nc2C12CCC2	–
111	C[C@@H]1COCCN1c1nc(-c2cccc3[nH]ccc23)nc2c1CN(C(=O)C1CC1)CC2	–
7	C[C@@H]1COCCN1c1nc(-c2cccc3[nH]ccc23)nc2c1CN(C(=O)C1CCC1)C2(C)C	Activity (LoVo [2]): <45%
9	CCC(=O)N1CCc2c(N3CCOC[C@H]3C)nc(-c3cccc4[nH]ccc34)nc2C1(C)C	IC50 (LoVo [3]): 779 nM; IC50 (HT-29): 2470 nM; half-life at 1 h, 1 µM (in vitro [4]): 6.7 min; half-life at 1 h, 1 µM (in vitro [5]): 14 min; microsomal CLint at 1 h, 1 µM (in vitro [6]): 207 µL/min/mg; microsomal CLint at 1 h, 1 µM (in vitro [7]): 98.8 µL/min/mg; CLint scaled at 1 h, 1 µM (in vitro [8]): 195 mL/min/kg; CLint scaled at 1 h, 1 µM (in vitro [9]): 178 mL/min/kg
76	COc1cccc(C(=O)N2CCc3c(nc(-c4cccc5[nH]ccc45)nc3N3CCOC[C@H]3C)C2)c1	–
> 100	COc1cccc(C(=O)N2CCc3c(N4CCOC[C@H]4C)nc(-c4cccc5[nH]ccc45)nc3C23CCC3)c1	–
72	C[C@@H]1COCCN1c1nc(-c2cccc3[nH]ccc23)nc2c1CCN(C(=O)c1cccc(C(F)(F)F)c1)C2(C)C	–
10	CC(C)C(=O)N1CCc2c(N3CCOC[C@H]3C)nc(-c3cccc4[nH]ccc34)nc2C1(C)C	IC50 (LoVo [3]): 1120 nM; IC50 (HT-29): 4310 nM; half-life at 1 h, 1 µM (in vitro [4]): 2.82 min; half-life at 1 h, 1 µM (in vitro [5]): 10.9 min; microsomal CLint at 1 h, 1 µM (in vitro [6]): 493 µL/min/mg; microsomal CLint at 1 h, 1 µM (in vitro [7]): 129 µL/min/mg; CLint scaled at 1 h, 1 µM (in vitro [8]): 466 mL/min/kg; CLint scaled at 1 h, 1 µM (in vitro [9]): 232 mL/min/kg
12	C[C@@H]1COCCN1c1nc(-c2cccc3[nH]ccc23)nc2c1CN(C(=O)C(C)(C)C)C2(C)C	Activity (LoVo [2]): <45%
18	COC(=O)N1CCc2c(N3CCOC[C@H]3C)nc(-c3cccc4[nH]ccc34)nc2C1(C)C	–
8	C[C@@H]1COCCN1c1nc(-c2cccc3[nH]ccc23)nc2c1CCN(C(=O)C1CC1)C2(C)C	–
18	C[C@@H]1COCCN1c1nc(-c2cccc3[nH]ccc23)nc2c1CCN(C(=O)c1ccc(F)cc1)C2(C)C	–
2	CC(=O)N1Cc2c(N3CCOC[C@H]3C)nc(-c3cccc4[nH]ccc34)nc2C1(C)C	Activity (LoVo [2]): <45%
> 100	C[C@@H]1COCCN1c1nc(-c2cccc3[nH]ccc23)nc2c1CCN(C(=O)c1ccc(C(F)(F)F)cc1)C2(C)C	–
18	CCOC(=O)N1CCc2c(N3CCOC[C@H]3C)nc(-c3cccc4[nH]ccc34)nc2C1(C)C	–
29	CC(C)C(=O)N1CCc2c(N3CCOC[C@H]3C)nc(-c3cccc4[nH]ccc34)nc2C12CCC2	–
